Results published in PMC5391474, “Investigation of the Role of Protein Kinase D in Human Rhinovirus Replication” (Journal of Virology, 2017).

What was measured:
Assay in all cases: biochemical
Design in all cases: in vitro kinase selectivity panel, protein and lipid kinases, single concentration, ATP at Km
Settings in all cases: ATP at Km
CDK1/cyclinB(h) = CDK1/cyclinB(h) (Homo sapiens, UniProt P06493)
Summary of the method: (§1)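 Single-point screen against a protein and lipid kinase panel: inhibitor at 1 μM. ATP concentration for every kinase equivalent to its Km.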

CHK1(h) = molecular target: T1, CHK1(h) (Homo sapiens, UniProt O14757)
T1 construct: gene CHEK1
T1 sequence (O14757 whole entry): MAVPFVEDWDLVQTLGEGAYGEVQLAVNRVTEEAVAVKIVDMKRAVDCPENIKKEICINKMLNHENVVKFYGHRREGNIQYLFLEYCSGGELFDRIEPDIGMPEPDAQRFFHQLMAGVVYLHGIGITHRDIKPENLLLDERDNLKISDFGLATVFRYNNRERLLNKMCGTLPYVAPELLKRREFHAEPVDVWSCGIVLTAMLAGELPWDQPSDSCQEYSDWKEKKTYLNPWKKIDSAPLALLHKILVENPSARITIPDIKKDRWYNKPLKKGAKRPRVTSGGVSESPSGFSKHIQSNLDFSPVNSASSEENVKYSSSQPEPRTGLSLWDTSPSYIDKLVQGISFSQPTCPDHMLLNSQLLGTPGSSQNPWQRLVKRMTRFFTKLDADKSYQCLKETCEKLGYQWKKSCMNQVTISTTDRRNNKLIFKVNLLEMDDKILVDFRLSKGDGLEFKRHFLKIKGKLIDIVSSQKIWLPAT
Summary of the method: as §1

CK1γ3(h) = molecular target: T2, CK1γ3(h) (Homo sapiens, UniProt Q9Y6M4)
T2 construct: gene CSNK1G3
T2 sequence (Q9Y6M4 whole entry): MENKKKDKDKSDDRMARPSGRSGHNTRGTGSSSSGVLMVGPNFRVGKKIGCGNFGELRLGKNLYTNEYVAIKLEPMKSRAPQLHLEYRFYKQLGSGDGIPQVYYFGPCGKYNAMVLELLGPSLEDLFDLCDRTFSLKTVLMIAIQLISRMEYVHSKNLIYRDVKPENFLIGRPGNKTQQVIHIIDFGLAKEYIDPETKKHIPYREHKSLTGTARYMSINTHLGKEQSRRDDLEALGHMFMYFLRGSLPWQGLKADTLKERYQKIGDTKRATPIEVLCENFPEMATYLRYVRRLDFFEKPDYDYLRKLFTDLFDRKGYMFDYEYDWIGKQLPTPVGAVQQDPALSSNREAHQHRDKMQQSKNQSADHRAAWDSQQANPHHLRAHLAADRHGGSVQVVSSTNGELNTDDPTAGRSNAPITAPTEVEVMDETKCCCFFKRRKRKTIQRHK
Summary of the method: as §1

CK2(h) = molecular target: T3, CK2(h) (Homo sapiens, UniProt P68400)
T3 construct: gene CSNK2A1
Summary of the method: as §1

FGFR1(h) = FGFR1(h) (Homo sapiens, UniProt P11362)
FGFR1(h), sequence (P11362 whole entry): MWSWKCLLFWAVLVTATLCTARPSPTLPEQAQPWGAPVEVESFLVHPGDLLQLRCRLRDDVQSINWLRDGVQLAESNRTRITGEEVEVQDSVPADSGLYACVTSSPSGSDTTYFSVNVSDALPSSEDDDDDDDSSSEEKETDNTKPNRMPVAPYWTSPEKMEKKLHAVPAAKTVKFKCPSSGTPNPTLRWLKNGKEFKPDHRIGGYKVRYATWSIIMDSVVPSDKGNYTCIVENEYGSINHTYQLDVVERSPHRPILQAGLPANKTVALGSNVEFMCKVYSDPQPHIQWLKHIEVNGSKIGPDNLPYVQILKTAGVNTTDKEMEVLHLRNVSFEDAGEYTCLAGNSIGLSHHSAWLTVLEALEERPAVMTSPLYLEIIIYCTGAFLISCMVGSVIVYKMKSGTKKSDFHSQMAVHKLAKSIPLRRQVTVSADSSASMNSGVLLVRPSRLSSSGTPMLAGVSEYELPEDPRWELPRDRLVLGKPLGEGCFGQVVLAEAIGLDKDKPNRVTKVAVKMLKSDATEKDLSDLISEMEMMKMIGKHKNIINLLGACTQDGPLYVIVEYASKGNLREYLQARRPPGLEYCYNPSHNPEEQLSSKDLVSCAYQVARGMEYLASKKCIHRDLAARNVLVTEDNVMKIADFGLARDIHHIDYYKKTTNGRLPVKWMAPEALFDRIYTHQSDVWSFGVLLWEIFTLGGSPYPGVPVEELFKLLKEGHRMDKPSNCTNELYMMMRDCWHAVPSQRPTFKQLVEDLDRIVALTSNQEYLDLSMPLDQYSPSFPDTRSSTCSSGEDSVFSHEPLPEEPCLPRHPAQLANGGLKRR
Summary of the method: as §1

FGFR3(h) = FGFR3(h) (Homo sapiens, UniProt P22607)
FGFR3(h), sequence (P22607 whole entry): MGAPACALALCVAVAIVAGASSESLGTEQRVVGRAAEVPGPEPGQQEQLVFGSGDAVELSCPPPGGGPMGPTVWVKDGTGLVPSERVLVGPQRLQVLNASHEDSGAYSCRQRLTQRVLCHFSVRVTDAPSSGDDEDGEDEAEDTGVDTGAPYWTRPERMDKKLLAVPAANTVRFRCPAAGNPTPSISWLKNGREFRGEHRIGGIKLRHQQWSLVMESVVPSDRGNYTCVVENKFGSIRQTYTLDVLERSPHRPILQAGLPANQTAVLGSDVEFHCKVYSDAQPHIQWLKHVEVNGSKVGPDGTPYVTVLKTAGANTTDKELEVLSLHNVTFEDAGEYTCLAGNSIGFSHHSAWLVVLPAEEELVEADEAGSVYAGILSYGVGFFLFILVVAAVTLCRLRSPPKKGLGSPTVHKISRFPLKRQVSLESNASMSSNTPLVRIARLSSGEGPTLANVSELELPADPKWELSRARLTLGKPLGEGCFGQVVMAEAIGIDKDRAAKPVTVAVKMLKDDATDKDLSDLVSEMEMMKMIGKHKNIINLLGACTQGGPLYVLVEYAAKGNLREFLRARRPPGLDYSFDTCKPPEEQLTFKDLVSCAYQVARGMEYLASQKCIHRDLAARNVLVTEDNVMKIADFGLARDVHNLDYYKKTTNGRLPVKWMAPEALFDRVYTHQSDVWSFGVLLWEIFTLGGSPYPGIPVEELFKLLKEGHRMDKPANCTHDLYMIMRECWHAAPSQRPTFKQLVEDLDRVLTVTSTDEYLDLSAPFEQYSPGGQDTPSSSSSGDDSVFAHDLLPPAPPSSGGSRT
Summary of the method: as §1

Hck(h) = Hck(h) (Homo sapiens, UniProt P08631)
Summary of the method: as §1

MELK(h) = MELK(h) (Homo sapiens, UniProt Q14680)
Summary of the method: as §1

PDGFRα(D842V)(h) = molecular target: T4, PDGFRα(D842V)(h) (Homo sapiens, UniProt P16234, D842V)
T4 construct: gene PDGFRA
T4 sequence (P16234 whole entry D842V): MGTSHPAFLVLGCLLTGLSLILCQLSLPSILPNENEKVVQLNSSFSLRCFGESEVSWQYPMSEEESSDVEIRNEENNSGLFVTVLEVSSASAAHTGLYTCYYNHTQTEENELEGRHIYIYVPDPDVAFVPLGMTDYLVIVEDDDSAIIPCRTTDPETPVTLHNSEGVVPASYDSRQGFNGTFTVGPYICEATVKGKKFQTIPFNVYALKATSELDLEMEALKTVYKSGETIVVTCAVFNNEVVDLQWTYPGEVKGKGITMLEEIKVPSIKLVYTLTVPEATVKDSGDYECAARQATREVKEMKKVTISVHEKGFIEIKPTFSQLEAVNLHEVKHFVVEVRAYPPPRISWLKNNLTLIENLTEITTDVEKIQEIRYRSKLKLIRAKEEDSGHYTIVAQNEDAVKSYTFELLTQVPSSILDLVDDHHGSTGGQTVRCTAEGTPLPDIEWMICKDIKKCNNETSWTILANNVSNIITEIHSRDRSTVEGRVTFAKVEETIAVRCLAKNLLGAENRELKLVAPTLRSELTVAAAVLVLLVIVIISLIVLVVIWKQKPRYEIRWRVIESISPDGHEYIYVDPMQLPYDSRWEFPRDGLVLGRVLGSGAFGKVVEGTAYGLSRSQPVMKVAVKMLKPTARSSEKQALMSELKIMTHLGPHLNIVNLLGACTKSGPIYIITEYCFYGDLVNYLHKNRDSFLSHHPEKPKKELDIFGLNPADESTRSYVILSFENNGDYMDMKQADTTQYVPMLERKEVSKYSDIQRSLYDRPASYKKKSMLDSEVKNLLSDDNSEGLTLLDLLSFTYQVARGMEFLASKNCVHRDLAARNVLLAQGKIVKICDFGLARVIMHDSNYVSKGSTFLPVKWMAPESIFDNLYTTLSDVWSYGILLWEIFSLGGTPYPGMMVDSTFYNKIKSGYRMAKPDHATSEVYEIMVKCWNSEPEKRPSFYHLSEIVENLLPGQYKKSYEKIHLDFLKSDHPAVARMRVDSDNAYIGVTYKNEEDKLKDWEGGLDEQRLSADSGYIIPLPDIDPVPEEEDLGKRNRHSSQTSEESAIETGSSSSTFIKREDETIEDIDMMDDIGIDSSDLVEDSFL
Summary of the method: as §1

PDGFRα(h) = molecular target: T5, PDGFRα(h) (Homo sapiens, UniProt P16234)
T5 construct: gene PDGFRA
T5 sequence (P16234 whole entry): as the sequence (P16234 whole entry D842V) above, with V842D counted along it
Summary of the method: as §1

PDK1(h) = molecular target: T6, PDK1(h) (Homo sapiens, UniProt O15530)
T6 construct: gene PDPK1
T6 sequence (O15530 whole entry): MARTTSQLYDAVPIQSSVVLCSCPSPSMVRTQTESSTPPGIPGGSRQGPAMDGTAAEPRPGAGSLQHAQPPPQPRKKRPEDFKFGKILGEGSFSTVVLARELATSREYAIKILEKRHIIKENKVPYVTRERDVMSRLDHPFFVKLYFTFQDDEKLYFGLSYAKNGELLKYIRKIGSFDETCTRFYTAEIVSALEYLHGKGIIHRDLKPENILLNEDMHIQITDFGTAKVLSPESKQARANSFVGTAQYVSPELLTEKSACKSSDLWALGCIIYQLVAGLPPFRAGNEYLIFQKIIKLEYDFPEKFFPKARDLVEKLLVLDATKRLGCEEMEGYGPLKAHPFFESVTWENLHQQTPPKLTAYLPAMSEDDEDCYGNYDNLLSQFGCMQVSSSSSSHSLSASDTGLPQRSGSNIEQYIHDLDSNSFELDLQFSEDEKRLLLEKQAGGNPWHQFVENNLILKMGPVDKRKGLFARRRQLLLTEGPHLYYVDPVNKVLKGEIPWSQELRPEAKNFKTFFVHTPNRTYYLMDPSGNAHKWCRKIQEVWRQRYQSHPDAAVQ
Summary of the method: as §1

PI4K2A = PI4K2A (Homo sapiens, UniProt Q9BTU6)
Summary of the method: as §1

PIK3CB = PIK3CB (Homo sapiens, UniProt P42338)
Summary of the method: as §1

PIK3CG = PIK3CG (Homo sapiens, UniProt P48736)
Summary of the method: as §1

PKCι(h) = molecular target: T7, PKCι(h) (Homo sapiens, UniProt P41743)
T7 construct: gene PRKCI
Summary of the method: as §1

Ros(h) = molecular target: T8, Ros(h) (Homo sapiens, UniProt P08922)
T8 construct: gene ROS1
Summary of the method: as §1

ZAP-70(h) = molecular target: T9, ZAP-70(h) (Homo sapiens, UniProt P43403)
T9 construct: gene ZAP70
Summary of the method: as §1

cKit(V560G)(h) = molecular target: T10, cKit(V560G)(h) (Homo sapiens, UniProt P10721, V560G)
T10 construct: gene KIT
Summary of the method: as §1

CDK1/cyclinB(h), sequence (P06493 whole entry): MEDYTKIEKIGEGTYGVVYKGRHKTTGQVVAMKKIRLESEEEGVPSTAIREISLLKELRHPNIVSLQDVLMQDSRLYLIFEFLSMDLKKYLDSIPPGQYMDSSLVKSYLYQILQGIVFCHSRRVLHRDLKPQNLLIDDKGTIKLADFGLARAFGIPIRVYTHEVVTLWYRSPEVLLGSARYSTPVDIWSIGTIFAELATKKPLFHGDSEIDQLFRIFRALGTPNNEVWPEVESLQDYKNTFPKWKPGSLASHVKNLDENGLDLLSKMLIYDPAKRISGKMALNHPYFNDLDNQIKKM
CDK1/cyclinB(h), sequence (P14635 whole entry partner): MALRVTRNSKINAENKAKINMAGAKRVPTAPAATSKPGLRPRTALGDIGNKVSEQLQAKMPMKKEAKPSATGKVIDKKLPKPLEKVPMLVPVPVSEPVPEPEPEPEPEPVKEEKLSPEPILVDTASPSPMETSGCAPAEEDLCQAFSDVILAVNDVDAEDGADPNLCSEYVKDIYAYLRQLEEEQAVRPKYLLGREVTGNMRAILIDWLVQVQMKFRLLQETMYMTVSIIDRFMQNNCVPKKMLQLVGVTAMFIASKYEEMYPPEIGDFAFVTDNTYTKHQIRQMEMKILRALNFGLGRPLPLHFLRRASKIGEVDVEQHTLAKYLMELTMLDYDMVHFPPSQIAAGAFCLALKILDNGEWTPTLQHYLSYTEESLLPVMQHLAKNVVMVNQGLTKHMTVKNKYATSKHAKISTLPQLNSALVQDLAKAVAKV

Molecule `CC[C@@H](N)CNc1ccnc(-c2cc(-c3cnn(C)c3)ccc2O)n1` [CRT0066101] has an inhibition at 1 µM (CDK1/cyclinB(h)) of 63%, an inhibition at 1 µM (CHK1(h)) of -2% and an inhibition at 1 µM (CK1γ3(h)) of -3%. The inhibition at 1 µM (CK2(h)) was 19%, the inhibition at 1 µM (FGFR1(h)) was -30% and the inhibition at 1 µM (FGFR3(h)) was -2%. For the same molecule, the inhibition at 1 µM (Hck(h)) was 4%, the inhibition at 1 µM (MELK(h)) was 55% and the inhibition at 1 µM (PDGFRα(D842V)(h)) was 61%. For the same molecule, the inhibition at 1 µM (PDGFRα(h)) was 14%, the inhibition at 1 µM (PDK1(h)) was -17% and the inhibition at 1 µM (PI4K2A) was 4%. For the same molecule, the inhibition at 1 µM (PIK3CB) was -9%, the inhibition at 1 µM (PIK3CG) was 29% and the inhibition at 1 µM (PKCι(h)) was 10%. For the same molecule, the inhibition at 1 µM (Ros(h)) was -13%, the inhibition at 1 µM (ZAP-70(h)) was -19% and the inhibition at 1 µM (cKit(V560G)(h)) was 24%.
